According to PMC8575457, “Molecular reconstruction of recurrent evolutionary switching in olfactory receptor specificity” (eLife, 2021):
Changes are numbered by the printed parent chain.

Assays:
Experiment in all cases: single sensillum extracellular recording, Ir decoder neuron
Details in all cases: 1% v/v odor in water, 10 ul, 500 ms pulse; agonist
DmelIr75b^DsecS1 [1] = molecular target: T1, DmelIr75b^DsecS1 (Drosophila melanogaster, UniProt A0A1S6EMU4, I210K/M217L/K220Q/N259S/I277M/F289L/Q291K/P473S/G492S/A520T/T523S, form not given); type: cell-based
T1 construct: gene IR75b; UAS transgene in Ir decoder neuron; with Ionotropic receptor 8a (D. melanogaster, endogenous)
T1 sequence (A0A1S6EMU4 1-609 I210K/M217L/K220Q/N259S/I277M/F289L/Q291K/P473S/G492S/A520T/T523S): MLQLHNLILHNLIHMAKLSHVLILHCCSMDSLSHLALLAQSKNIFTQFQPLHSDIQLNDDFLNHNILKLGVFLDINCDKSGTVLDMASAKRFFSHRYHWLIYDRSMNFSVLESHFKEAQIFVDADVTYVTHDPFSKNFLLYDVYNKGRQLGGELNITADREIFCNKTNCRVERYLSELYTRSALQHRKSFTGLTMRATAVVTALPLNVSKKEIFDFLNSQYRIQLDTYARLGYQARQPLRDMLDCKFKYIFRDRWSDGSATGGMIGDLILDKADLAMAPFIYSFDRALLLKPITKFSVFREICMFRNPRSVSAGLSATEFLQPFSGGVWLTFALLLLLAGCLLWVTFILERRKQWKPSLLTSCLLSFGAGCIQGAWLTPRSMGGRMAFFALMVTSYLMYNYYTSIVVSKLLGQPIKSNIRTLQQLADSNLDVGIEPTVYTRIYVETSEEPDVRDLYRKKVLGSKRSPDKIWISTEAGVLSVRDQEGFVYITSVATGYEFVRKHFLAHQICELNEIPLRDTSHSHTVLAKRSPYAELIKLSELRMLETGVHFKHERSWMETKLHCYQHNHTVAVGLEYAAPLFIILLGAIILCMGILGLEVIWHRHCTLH
T1 sequence (Q9W365 18-936 partner): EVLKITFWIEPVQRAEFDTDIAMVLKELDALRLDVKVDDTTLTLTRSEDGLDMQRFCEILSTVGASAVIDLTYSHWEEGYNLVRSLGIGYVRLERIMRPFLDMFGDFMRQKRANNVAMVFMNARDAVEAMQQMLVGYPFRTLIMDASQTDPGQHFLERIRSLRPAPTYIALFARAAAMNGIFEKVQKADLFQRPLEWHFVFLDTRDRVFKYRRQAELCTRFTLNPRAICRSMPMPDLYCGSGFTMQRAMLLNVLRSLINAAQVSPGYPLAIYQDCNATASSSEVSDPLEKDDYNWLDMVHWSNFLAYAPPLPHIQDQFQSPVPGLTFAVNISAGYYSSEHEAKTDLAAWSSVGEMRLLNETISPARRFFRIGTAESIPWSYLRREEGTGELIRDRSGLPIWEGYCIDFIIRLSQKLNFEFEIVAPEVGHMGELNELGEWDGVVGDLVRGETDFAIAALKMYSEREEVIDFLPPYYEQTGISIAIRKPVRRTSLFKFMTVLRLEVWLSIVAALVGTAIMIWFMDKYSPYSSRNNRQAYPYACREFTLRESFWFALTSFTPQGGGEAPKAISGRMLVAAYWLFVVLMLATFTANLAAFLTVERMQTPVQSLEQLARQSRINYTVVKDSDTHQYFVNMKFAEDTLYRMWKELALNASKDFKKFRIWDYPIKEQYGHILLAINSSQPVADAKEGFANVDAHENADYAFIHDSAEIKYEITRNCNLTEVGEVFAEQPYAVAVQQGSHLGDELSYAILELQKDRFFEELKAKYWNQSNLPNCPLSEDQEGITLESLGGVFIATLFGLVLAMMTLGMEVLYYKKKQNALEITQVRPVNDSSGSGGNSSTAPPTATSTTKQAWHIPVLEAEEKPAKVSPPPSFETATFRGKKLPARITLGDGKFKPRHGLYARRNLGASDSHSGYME

DsecIr75b = molecular target: T2, DsecIr75b (Drosophila sechellia, UniProt A0A1S6EMU3); type: cell-based, Drosophila melanogaster
T2 construct: gene IR75b; cDNA, UAS transgene expressed in D. melanogaster Ir decoder neuron with D. melanogaster Ir8a; predicted heterotetramer; with Ionotropic receptor 8a (D. melanogaster, endogenous)
T2 sequence (A0A1S6EMU3 1-609): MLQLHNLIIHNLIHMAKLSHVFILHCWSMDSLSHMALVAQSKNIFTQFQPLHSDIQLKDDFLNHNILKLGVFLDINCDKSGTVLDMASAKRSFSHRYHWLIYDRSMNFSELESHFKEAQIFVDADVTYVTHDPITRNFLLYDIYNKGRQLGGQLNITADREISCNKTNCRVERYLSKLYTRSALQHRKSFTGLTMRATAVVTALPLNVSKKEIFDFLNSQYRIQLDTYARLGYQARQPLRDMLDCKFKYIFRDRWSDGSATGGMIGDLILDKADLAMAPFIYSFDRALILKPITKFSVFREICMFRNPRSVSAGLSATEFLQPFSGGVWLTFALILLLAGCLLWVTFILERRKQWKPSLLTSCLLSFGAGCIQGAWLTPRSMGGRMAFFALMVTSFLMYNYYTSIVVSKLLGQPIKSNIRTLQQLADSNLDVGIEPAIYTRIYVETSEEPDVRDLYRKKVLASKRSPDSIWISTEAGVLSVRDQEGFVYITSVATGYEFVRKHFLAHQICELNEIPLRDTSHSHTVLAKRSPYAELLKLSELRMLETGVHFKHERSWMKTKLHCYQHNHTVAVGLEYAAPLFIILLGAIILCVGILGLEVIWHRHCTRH
T2 sequence (Q9W365 18-936 partner): T1 sequence (Q9W365 18-936 partner)

DmelIr75b^DsecS1 [2] = molecular target: T3, DmelIr75b^DsecS1 (Drosophila melanogaster, UniProt A0A1S6EMU4, I210K/M217L/K220Q/N259S/I277M/F289L/Q291K, form not given); type: cell-based
T3 construct: gene IR75b; UAS transgene in Ir decoder neuron; with Ionotropic receptor 8a (D. melanogaster, endogenous)
T3 sequence (A0A1S6EMU4 1-609 I210K/M217L/K220Q/N259S/I277M/F289L/Q291K): T1 sequence (A0A1S6EMU4 1-609 I210K/M217L/K220Q/N259S/I277M/F289L/Q291K/P473S/G492S/A520T/T523S) with S473P, S492G, T520A, S523T
T3 sequence (Q9W365 18-936 partner): T1 sequence (Q9W365 18-936 partner)

DmelIr75b = molecular target: T4, DmelIr75b (Drosophila melanogaster, UniProt A0A1S6EMU4, T523S); type: cell-based
T4 construct: gene IR75b; cDNA, UAS transgene expressed in D. melanogaster Ir decoder neuron with endogenous Ir8a; predicted heterotetramer; with Ionotropic receptor 8a (D. melanogaster, endogenous)
T4 sequence (A0A1S6EMU4 1-609 T523S): T1 sequence (A0A1S6EMU4 1-609 I210K/M217L/K220Q/N259S/I277M/F289L/Q291K/P473S/G492S/A520T/T523S) with K210I, L217M, Q220K, S259N, M277I, L289F, K291Q, S473P, S492G, T520A
T4 sequence (Q9W365 18-936 partner): T1 sequence (Q9W365 18-936 partner)

CCCCCC(=O)O [C6, hexanoic acid]
solvent-corrected response (spikes/s) (DmelIr75b^DsecS1 [1]): DmelIr75b^DsecS1,4mutS2 still has a significantly increased sensitivity to C6 when compared with DmelIr75b | solvent-corrected response (spikes/s) (DsecIr75b): its response to C6 is significantly smaller than that of DsecIr75b | solvent-corrected response (spikes/s) (DmelIr75b^DsecS1 [2]): DmelIr75b^DsecS1, with significantly increased responses to C6 | solvent-corrected response (spikes/s) (DmelIr75b): mutation of the hotspot in DmelIr75b is sufficient to confer novel responses to C5 and C6
